Results taken from PMC5075766, “Antiplasmodial Activity Is an Ancient and Conserved Feature of Tick Defensins” (Frontiers in Microbiology, 2016).
Read-outs that look alike come from different tables or passages of the source. Positions of bridges follow the written chain, without caps; N, C: chain ends. Residues, ends and D or L forms follow the SMILES beside them.

Test system: blood stages of P. falciparum
Format: cell-based, Plasmodium falciparum
Details: 48 h, starting parasitemia 0.5%, haematocrit 1%, SYBR Green I flow cytometry
Description: The growth inhibition assay was described in detail in [Fréville et al. (2013)]. Briefly, assays were carried out in 96-well plates with a starting parasitemia of 0.5% at a haematocrit of 1% using SYBR Green I ([Kelly et al., 2009]). The peptides were added to the culture at different concentrations ranging from 6.25 μM to 50 μM (final concentrations) in a volume of 250 μl of RPMI-AlbuMAX (0.5%) and incubated for an additional 48 h to allow all stages to complete one cycle. Cultures were stained for 30 min in the dark with SYBR Green I 1X (Invitrogen) diluted in 20 mM Tris pH8.8, 138 mM NaCl, and fixed with 1% paraformaldehyde. Fixed parasited red blood cells (RBC) were stored at 4°C in the dark until flow cytometry analysis. Parasite growth was assessed by flow cytometry on a BD FACSCantoII (BD Biosciences). Cell pairs were excluded from the analysis using a forward scatter (FSC)-width versus FSC-area dot plot. […] Fluorescence analysis (Green fluorescence) was performed using BD FACSDiva software (version 6.1.3, BD Biosciences) on a total of 200,000 acquired events. Fluorescence was observed as described by [Izumiyama et al. (2009)] on a two-parameter dot plot (Green fluoresecence-FSC). Fluorescence of non-infected RBC was adjusted to plot between […]. Results are expressed as the percentage of growth inhibition. […]

CC[C@H](C)[C@H](NC(=O)[C@@H]1CSSC[C@@H]2NC(=O)[C@H](Cc3c[nH]cn3)NC(=O)[C@H](CCCNC(=N)N)NC(=O)[C@H](CC(=O)O)NC(=O)[C@@H]3CSSC[C@H](NC(=O)[C@H]([C@@H](C)O)NC(=O)[C@H](CC(C)C)NC(=O)[C@H](CCCCN)NC(=O)[C@H](Cc4c[nH]c5ccccc45)NC(=O)[C@H](CCCNC(=N)N)NC(=O)CNC(=O)CNC(=O)[C@H](CSSC[C@H](NC(=O)[C@H](Cc4ccccc4)NC(=O)[C@H](Cc4ccccc4)NC(=O)CN)C(=O)N4CCC[C@H]4C(=O)N[C@@H](Cc4ccc(O)cc4)C(=O)N[C@@H](CC(N)=O)C(=O)NCC(=O)N[C@@H](Cc4ccc(O)cc4)C(=O)N3)NC(=O)[C@H](Cc3ccc(O)cc3)NC(=O)CNC(=O)CNC(=O)[C@H](CCCNC(=N)N)NC(=O)[C@H](CCCNC(=N)N)NC(=O)[C@H](CCCNC(=N)N)NC(=O)[C@H](CC(C)C)NC(=O)[C@H](CCCCN)NC(=O)[C@H](CCCCN)NC(=O)[C@H](CCCNC(=N)N)NC2=O)C(=O)N[C@@H]([C@@H](C)CC)C(=O)N1)C(=O)N[C@@H](CCSC)C(=O)N[C@@H](CC(N)=O)C(=O)O [DefMT5] (H-GFFCPYNGYCDRHCRKKLRRRGGYCGGRWKLTCICIMN-OH; disulfide 4-25, 10-33, 14-35; N-terminus assumed)
P. falciparum growth inhibition (6.25 μM peptide): 20% | P. falciparum growth inhibition (50 μM peptide (highest concentration tested)): ~100%
